What is called IC50 is the point on the concentration scale where inhibition reaches its midpoint. Read a low IC50 as greater potency.

Structures are written as SMILES.

62 compounds from US9687479B2, “Multisubstituted aromatic compounds as serine protease inhibitors” (VERSEON CORPORATION, priority 2013, dated 2017) can be followed below.

One assay has as its target Human thrombin (Homo sapiens (Human), UniProt P00734). Kind of assay: Thrombin protease activity inhibition assay (chromogenic substrate S-2238). Type of assay: biochemical. Conditions: 3 nM thrombin, 125 μM S-2238, 10 min pre-incubation, RT. The procedure, abridged:
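Thrombin at 3 nM final in 0.05 M Tris pH 7.4, 0.015 M NaCl, 0.01% PEG-8000, at room temperature; compounds as ten-point three-fold dilutions.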
On to `Nc1cc(-c2cccn(Cc3ccccn3)c2=O)nn1C(=O)c1ccco1` [Cmpd 256, 3-5-amino-1-[(furan-2-yl)carbonyl]-1H-pyrazol-3-yl-1-(pyridin-2-ylmethyl)-1,2-dihydropyridin-2-one], for which the half-inhibitory concentration (IC50) was 1000 to 10000 nM.

`CCOC(=O)Cn1cccc(-c2cc(NCc3ccc(Cl)s3)n(C(=O)C(C)(C)C)n2)c1=O` [Cmpd 257, ethyl 2-[3-(5-[(5-chlorothiophen-2-yl)methyl]amino-1-(2,2-dimethylpropanoyl)-1H-pyrazol-3-yl)-2-oxo-1,2-dihydropyridin-1-yl]acetate]: the IC50 was less than 100 nM. In turn, `CCOC(=O)Cn1cccc(-c2cc(NCc3ccc(Cl)s3)n(C(=O)c3ccccc3OC)n2)c1=O` [Cmpd 258, ethyl 2-[3-(5-[(5-chlorothiophen-2-yl)methyl]amino-1-[(2-methoxyphenyl)carbonyl]-1H-pyrazol-3-yl)-2-oxo-1,2-dihydropyridin-1-yl]acetate] registered a concentration for half-maximal inhibition (IC50) of less than 100 nM.

`CCOC(=O)Cn1cccc(-c2cc(NCc3ccc(Cl)s3)n(C(=O)c3ccoc3)n2)c1=O` [Cmpd 259, ethyl 2-[3-(5-[(5-chlorothiophen-2-yl)methyl]amino-1-[(furan-3-yl)carbonyl]-1H-pyrazol-3-yl)-2-oxo-1,2-dihydropyridin-1-yl]acetate] displayed an IC50 of less than 100 nM.

In turn, `CCOC(=O)Cn1cccc(-c2cc(NCc3ccc(Cl)s3)n[nH]2)c1=O` [Cmpd 260, ethyl 2-[3-(5-[(5-chlorothiophen-2-yl)methyl]amino-1H-pyrazol-3-yl)-2-oxo-1,2-dihydropyridin-1-yl]acetate] came in with a half-maximal inhibitory concentration (IC50) of 10000 to 100000 nM. The compound `CC(C)(C)OC(=O)Cn1cccc(-c2cc(NCc3ccc(Cl)s3)n(C(=O)C(C)(C)C)n2)c1=O` [Cmpd 261, tert-butyl 2-[3-(5-[(5-chlorothiophen-2-yl)methyl]amino-1-(2,2-dimethylpropanoyl)-1H-pyrazol-3-yl)-2-oxo-1,2-dihydropyridin-1-yl]acetate] had an IC50 of less than 100 nM. `COc1ccccc1C(=O)n1nc(-c2cccn(CC(=O)OC(C)(C)C)c2=O)cc1NCc1ccc(Cl)s1` [Cmpd 262, tert-butyl 2-[3-(5-[(5-chlorothiophen-2-yl)methyl]amino-1-[(2-methoxyphenyl)carbonyl]-1H-pyrazol-3-yl)-2-oxo-1,2-dihydropyridin-1-yl]acetate] had an IC50 of less than 100 nM.

In turn, `CC(C)(C)OC(=O)Cn1cccc(-c2cc(NCc3ccc(Cl)s3)n(C(=O)c3ccoc3)n2)c1=O` [Cmpd 263, tert-butyl 2-[3-(5-[(5-chlorothiophen-2-yl)methyl]amino-1-[(furan-3-yl)carbonyl]-1H-pyrazol-3-yl)-2-oxo-1,2-dihydropyridin-1-yl]acetate] had an IC50 of less than 100 nM.

Compound `CC(C)(C)OC(=O)Cn1cccc(-c2cc(NCc3ccc(Cl)s3)[nH]n2)c1=O` [Cmpd 264, tert-butyl 2-[3-(5-[(5-chlorothiophen-2-yl)methyl]amino-1H-pyrazol-3-yl)-2-oxo-1,2-dihydropyridin-1-yl]acetate] showed a 50% inhibitory concentration (IC50) greater than 100000 nM.

For the next assay, the target named is Human KLKB1 (Homo sapiens (Human), UniProt P03952). Kind of assay: KLKB1 kallikrein activity inhibition assay (chromogenic substrate S-2302). Type of assay: biochemical. As to conditions: Table B. How it is done: The KLKB1 kallikrein activity reported herein (e.g., Tables B, C, and D) was obtained as follows. Human KLKB1 protein was obtained from Enzyme Research Labs. […] KLKB1 was assayed in buffer containing 0.05 M Tris (pH 7.4), 0.01 M NaCl and 0.2% w/v PEG-8000. The final concentration of enzyme used was 3 nM KLKB1. […] All assays were performed in 96-well microtiter plates at room temperature (RT). […] Inhibitor IC50 values were determined by adding test compound as ten point, three-fold serial dilutions in buffer solution, as known in the art. The plate was read at 10 minutes after substrate addition. The IC50 was calculated by plotting the percent (%) inhibition against compound concentration and fitting the data to a constrained four parameter sigmoidal curve, as known in the art.
Chain of Human KLKB1 (P03952 391-638 limits assumed): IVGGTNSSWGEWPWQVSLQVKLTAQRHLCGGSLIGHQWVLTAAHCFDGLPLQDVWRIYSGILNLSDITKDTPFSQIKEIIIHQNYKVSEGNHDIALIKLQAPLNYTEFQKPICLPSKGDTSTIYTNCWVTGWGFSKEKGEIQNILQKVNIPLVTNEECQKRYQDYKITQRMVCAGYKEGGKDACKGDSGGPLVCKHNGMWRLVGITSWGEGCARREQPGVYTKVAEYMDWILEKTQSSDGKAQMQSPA
Chain of Human KLKB1 (P03952 20-390 partner limits assumed): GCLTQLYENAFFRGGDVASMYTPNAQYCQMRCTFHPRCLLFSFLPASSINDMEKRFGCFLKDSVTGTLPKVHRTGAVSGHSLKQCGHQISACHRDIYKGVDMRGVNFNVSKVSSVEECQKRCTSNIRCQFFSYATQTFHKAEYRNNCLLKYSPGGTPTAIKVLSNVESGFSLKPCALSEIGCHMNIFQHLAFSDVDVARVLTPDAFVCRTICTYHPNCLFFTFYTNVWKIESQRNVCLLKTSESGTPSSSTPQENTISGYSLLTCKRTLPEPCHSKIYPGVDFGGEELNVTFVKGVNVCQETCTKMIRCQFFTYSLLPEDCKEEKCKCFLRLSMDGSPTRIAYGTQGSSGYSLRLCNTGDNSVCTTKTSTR
`CCC(=O)n1nc(-c2ccccc2)cc1NCc1ccc(F)cc1` [Cmpd 268] displayed an IC50 greater than 100 µM. As for `CC(C)(C)C(=O)n1nc(-c2ncccc2F)cc1NCc1ccc(Cl)s1` [Cmpd 269], the half-maximal inhibitory concentration (IC50) was greater than 100 µM. The compound `CC(C)(C)C(=O)n1nc(-c2ccco2)cc1NCc1ccc(Cl)s1` [Cmpd 270] came in with an IC50 greater than 100 µM.

`CC(C)(CO)C(=O)n1nc(C2CCOCC2)c(F)c1NCc1ccc(Cl)s1` [Cmpd 273] displayed a 50% inhibitory concentration (IC50) of 10 to 100 µM. `CC(C)(CO)C(=O)n1nc(C2CCNCC2)c(F)c1NCc1ccc(Cl)s1` [Cmpd 274] returned an IC50 of 1 to 10 µM. On to `CC(C)(CO)C(=O)n1nc(-c2ccccc2)c(F)c1NCc1ccc(Cl)s1` [Cmpd 275], for which the concentration for half-maximal inhibition (IC50) was greater than 100 µM. Regarding `COc1ccccc1C(=O)n1nc(-c2ccccn2)cc1NCc1cccs1` [Cmpd 278], the IC50 is greater than 100 µM. As to `CC(C)(C)C(=O)n1nc(-c2ccccn2)c(F)c1NCc1ccccc1` [Cmpd 279], the IC50 was greater than 100 µM. Compound `CC(C)(C)C(=O)n1nc(-c2ccccn2)cc1NCc1ccco1` [Cmpd 280, 1-5-[(furan-2-ylmethyl)amino]-3-(pyridin-2-yl)-1H-pyrazol-1-yl-2,2-dimethylpropan-1-one] had an IC50 greater than 100 µM.

Turning to `COc1ccccc1C(=O)n1nc(-c2ccccn2)cc1NCc1ccco1` [Cmpd 283], the IC50 is greater than 100 µM. For the compound `COc1ccccc1C(=O)n1nc(C2CCOCC2)cc1NCc1ccc(Cl)s1` [Cmpd 284], the half-maximal inhibitory concentration (IC50) was greater than 100 µM.

`O=C(c1ccoc1)n1nc(-c2ccccn2)cc1NCc1ccc(Cl)s1` [Cmpd 288] came in with a half-inhibitory concentration (IC50) of 10 to 100 µM.

The compound `O=C(c1ccoc1)n1nc(-c2cccs2)cc1NCc1ccc(Cl)s1` [Cmpd 289] displayed an IC50 greater than 100 µM.

Consider `COc1ccccc1C(=O)n1nc(-c2ncccc2F)cc1NCc1ccc(Cl)s1` [Cmpd 290], for which the half-inhibitory concentration (IC50) was greater than 100 µM. In turn, `O=C(c1ccoc1)n1nc(-c2ncccc2F)cc1NCc1ccc(Cl)s1` [Cmpd 291] registered an IC50 greater than 100 µM. As for `O=C(c1ccoc1)n1nc(-c2ccccc2)c(F)c1NCc1ccc(Cl)s1` [Cmpd 295], the IC50 was greater than 100 µM.

Compound `COc1ccccc1C(=O)n1nc(-c2ccccc2)c(F)c1NCc1ccccc1` [Cmpd 296] yielded an IC50 greater than 100 µM. In the case of `CC(C)(C)OC(=O)N1CCC(c2cc(NCc3ccc(Cl)s3)n(C(=O)C(C)(C)C)n2)CC1` [Cmpd 297], the IC50 was greater than 100 µM. Same read-out and setting: next, `CC(C)(C)OC(=O)N1CCC(c2cc(NCc3ccc(Cl)s3)n(C(=O)c3ccsc3)n2)CC1` [Cmpd 298]: greater than 100 µM.

Still in this assay, the particulars now being: Table C.
`CCC(=O)n1nc(-c2cccnc2)nc1NCc1ccc(F)cc1` [Cmpd 7] showed a 50% inhibitory concentration (IC50) of 10 to 100 µM.

In turn, `O=C(c1ccco1)n1nc(-c2ccccn2)nc1NCc1ccccc1` [Cmpd 8] displayed an IC50 of 1 to 10 µM.

With `O=C(c1cccs1)n1nc(-c2ccccn2)nc1NCc1ccc(F)cc1` [Cmpd 10], the 50% inhibitory concentration (IC50) is 1 to 10 µM. `O=C(c1ccsc1)n1nc(-c2ccncc2)nc1NCc1ccc(F)cc1` [Cmpd 11]: the IC50 was in the range of 1 to 10 µM. For the compound `COc1ccccc1C(=O)n1nc(-c2cccnc2)nc1SCc1ccc(F)cc1` [Cmpd 14], the IC50 fell in the range of 0.1 to 1 µM.

`COc1ccccc1C(=O)n1nc(-c2ccncn2)nc1NCc1ccccc1` [Cmpd 16] had an IC50 of 0.1 to 1 µM. As to `COc1ccccc1C(=O)n1nc(-c2cncnc2)nc1NCc1ccccc1` [Cmpd 17], the IC50 was 0.1 to 1 µM. For `Fc1ccc(CNc2nc(-c3ccccn3)nn2-c2nc3ccccc3s2)cc1` [Cmpd 299], the IC50 is greater than 100 µM.

In turn, `CC(C)(C)C(=O)n1nc(-c2ccco2)nc1NCc1ccc(F)cc1` [Cmpd 300] showed a half-maximal inhibitory concentration (IC50) of 10 to 100 µM. The same measure, in the same setting: next, `CC(C)(C)C(=O)n1nc(-c2ccccn2)nc1NCc1ccc(F)cc1` [Cmpd 301]: 10 to 100 µM; `CC(C)C(=O)n1nc(-c2ccccn2)nc1NCc1ccc(F)cc1` [Cmpd 302]: 10 to 100 µM; `O=C(Cc1ccccc1)n1nc(-c2ccccn2)nc1NCc1ccc(F)cc1` [Cmpd 303]: 1 to 10 µM. Compound `CC(C)CC(=O)n1nc(-c2ccccn2)nc1NCc1ccc(F)cc1` [Cmpd 304] had an IC50 of 10 to 100 µM. For `O=C(CCc1ccccc1)n1nc(-c2ccccn2)nc1NCc1ccc(F)cc1` [Cmpd 305], the IC50 lay within 10 to 100 µM. `CCCC(=O)n1nc(-c2ccccn2)nc1NCc1ccc(F)cc1` [Cmpd 306] returned an IC50 of 10 to 100 µM. In turn, `CCC(=O)n1nc(-c2ccccn2)nc1NCc1ccc(F)cc1` [Cmpd 307] had an IC50 of 10 to 100 µM. Consider `CC(C)(C)C(=O)n1nc(-c2cccnc2)nc1NCc1ccc(F)cc1` [Cmpd 308], for which the half-maximal inhibitory concentration (IC50) fell in the range of 10 to 100 µM.

For the compound `COCC(=O)n1nc(-c2cccnc2)nc1NCc1ccc(F)cc1` [Cmpd 309], the IC50 is greater than 100 µM. With `CC(C)C(=O)n1nc(-c2cccnc2)nc1NCc1ccc(F)cc1` [Cmpd 310], the IC50 was 10 to 100 µM. In turn, `O=C(Cc1ccccc1)n1nc(-c2cccnc2)nc1NCc1ccc(F)cc1` [Cmpd 311] had a concentration for half-maximal inhibition (IC50) of 1 to 10 µM. In turn, `CC(C)CC(=O)n1nc(-c2cccnc2)nc1NCc1ccc(F)cc1` [Cmpd 312] showed an IC50 of 10 to 100 µM. Compound `O=C(CCc1ccccc1)n1nc(-c2cccnc2)nc1NCc1ccc(F)cc1` [Cmpd 313] returned an IC50 of 10 to 100 µM. On the same count and under the same terms, next, `CCCC(=O)n1nc(-c2cccnc2)nc1NCc1ccc(F)cc1` [Cmpd 314]: 10 to 100 µM; `CC(C)C(=O)n1nc(-c2ccncc2)nc1NCc1ccc(F)cc1` [Cmpd 315]: 10 to 100 µM; `CC(C)CC(=O)n1nc(-c2ccncc2)nc1NCc1ccc(F)cc1` [Cmpd 316]: greater than 100 µM. Compound `CCCC(=O)n1nc(-c2ccncc2)nc1NCc1ccc(F)cc1` [Cmpd 317] showed an IC50 greater than 100 µM. In turn, `CCC(=O)n1nc(-c2ccncc2)nc1NCc1ccc(F)cc1` [Cmpd 318] displayed a 50% inhibitory concentration (IC50) greater than 100 µM. Regarding `COc1ccc(CNc2nc(-c3ccccn3)nn2C(=O)C(C)(C)C)cc1` [Cmpd 319], the IC50 was 10 to 100 µM.

`COc1ccc(CNc2nc(-c3ccccn3)nn2C(=O)C(C)C)cc1` [Cmpd 320] showed a half-inhibitory concentration (IC50) greater than 100 µM. For `COc1ccc(CNc2nc(-c3ccccn3)nn2C(=O)Cc2ccccc2)cc1` [Cmpd 321], the IC50 is 10 to 100 µM. The same measure, in the same setting: with `COc1ccc(CNc2nc(-c3ccccn3)nn2C(=O)CC(C)C)cc1` [Cmpd 322] the figure was 10 to 100 µM. Compound `CCCC(=O)n1nc(-c2ccccn2)nc1NCc1ccc(OC)cc1` [Cmpd 324] gave an IC50 of 10 to 100 µM.

Take `CCC(=O)n1nc(-c2ccccn2)nc1NCc1ccc(OC)cc1` [Cmpd 325]: the IC50 lay in the range of 10 to 100 µM.

For the compound `COc1ccc(CNc2nc(-c3cccnc3)nn2C(=O)C(C)(C)C)cc1` [Cmpd 326], the IC50 was greater than 100 µM.
